Legend:
[1] = system: velvetleaf; experiment: Test B pre/postemergence velvetleaf; type: in vivo, Abutilon theophrasti; conditions: for Plant response rating, Velvetleaf: Rate 250 g/ha
In short: (§1)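 Test chemicals in a non-phytotoxic solvent mixture with surfactant were sprayed preemergence onto planted seeds and postemergence onto plants 2 to 18 cm tall (1- to 4-leaf stage). After twelve to sixteen days in a greenhouse, injury was visually rated against untreated controls from 0 (no effect) to 10 (complete control).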

[2] = system: crabgrass; experiment: Test B pre/postemergence crabgrass; type: in vivo, Digitaria sanguinalis
In short: as §1

[3] = system: purple nutsedge; experiment: Test B pre/postemergence purple nutsedge; type: in vivo, Cyperus rotundus
In short: as §1

[4] = system: duck salad; experiment: Test B flood test duck salad; type: in vivo, Heteranthera limosa
In short: (§2)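 Each value is a visual injury score relative to controls, with 10 meaning complete control and 0 no effect. Evaluation took place twelve to sixteen days after the 2-leaf-stage plants were treated and kept in the greenhouse.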

[5] = system: rape; experiment: Test B pre/postemergence rape; type: in vivo, Brassica napus
In short: as §1

[6] = system: giant foxtail; experiment: Test B pre/postemergence giant foxtail; type: in vivo, Setaria faberii
In short: as §1

[7] = system: bamyardgrass; experiment: Test B flood test barnyardgrass; type: in vivo, Echinochloa crus-galli
In short: as §2

[8] = system: pigweed; experiment: Test B pre/postemergence pigweed; type: in vivo, Amaranthus retroflexus
In short: as §1

[9] = system: wild oat; experiment: Test B pre/postemergence wild oat; type: in vivo, Avena fatua; conditions: for Plant response rating, Wild oats: Rate 250 g/ha
In short: as §1

[10] = system: morningglory; experiment: Test B pre/postemergence morningglory; type: in vivo, Ipomoea hederacea
In short: as §1

[11] = system: soybean; experiment: Test B pre/postemergence soybean; type: in vivo, Glycine max
In short: as §1

[12] = system: corn; experiment: Test B pre/postemergence corn; type: in vivo, Zea mays
In short: as §1

[13] = system: rice; experiment: Test B flood test rice; type: in vivo, Oryza sativa
In short: as §2

[14] = system: cocklebur; experiment: Test B pre/postemergence cocklebur; type: in vivo, Xanthium strumarium
In short: as §1

[15] = system: wheat; experiment: Test B pre/postemergence wheat; type: in vivo, Triticum aestivum; conditions: for Plant response rating, Wheat: Rate 250 g/ha
In short: as §1

[16] = system: sugar beet; experiment: Test B pre/postemergence sugar beet; type: in vivo, Beta vulgaris; conditions: for Plant response rating, Sugarbeets: Rate 250 g/ha
In short: as §1

[17] = Postemergence, Rate 125 g/ha, scale of 0 to 10 where 0 is no effect and 10 is complete control
[18] = Preemergence, Rate 62 g/ha, scale 0 to 10 (0 no effect, 10 complete control)
[19] = Preemergence, Rate 125 g/ha, 0 is no effect, 10 is complete control
[20] = Preemergence, scale of 0 to 10 where 0 is no effect and 10 is complete control
[21] = Preemergence, Rate 500 g/ha, scale 0 to 10 (0 no effect, 10 complete control)
[22] = Rate 62 g/ha, Postemergence, scale of 0 to 10 where 0 is no effect and 10 is complete control
[23] = Postemergence, scale 0 to 10, 0 is no effect, 10 is complete control
[24] = Rate 500 g/ha, Postemergence, scale 0 to 10, 0 no effect, 10 complete control
[25] = Postemergence, Rate 250 g/ha, scale 0 to 10, 0 no effect, 10 complete control
[26] = Preemergence, Rate 125 g/ha, scale 0 to 10 (0 no effect, 10 complete control)
[27] = Preemergence, Rate 250 g/ha, scale of 0 to 10 where 0 is no effect and 10 is complete control
[28] = Postemergence (flood test species), Rate 125 g/ha, scale of 0 to 10 where 0 is no effect and 10 is complete control
[29] = Rate 62 g/ha, Postemergence section, flood test species, scale of 0 to 10 where 0 is no effect and 10 is complete control
[30] = Rate 500 g/ha, listed under Postemergence (flood test species), scale 0 to 10, 0 no effect, 10 complete control
[31] = flood test, listed under Postemergence, Rate 250 g/ha, scale 0 to 10, 0 no effect, 10 complete control
[32] = Rate 250 g/ha, Postemergence, scale 0 to 10, 0 is no effect, 10 is complete control

SMILES: CC(C)N(C(=O)n1oc(=O)n(C2CCCCC2)c1=O)c1ccc(F)cc1 [Compound 110]
- Velvetleaf plant response rating [1, 17]: 0
- Velvetleaf plant response rating [1, 18]: 0
- Velvetleaf plant response rating (0 to 10 scale) [1, 19]: 5
- Plant response rating, Velvetleaf [1, 20]: 5
- Velvetleaf plant response rating [1, 21]: 7
- Velvetleaf plant response rating [1, 22]: 0
- Plant response rating, Velvetleaf [1, 23]: 1
- Velvetleaf plant response rating [1, 24]: 2
- Crabgrass plant response rating [2, 17]: 3
- Crabgrass plant response rating [2, 25]: 3
- Crabgrass plant response rating [2, 18]: 3
- Plant response rating, Crabgrass [2, 26]: 3
- Plant response rating, Crabgrass [2, 27]: 9
- Crabgrass plant response rating [2, 21]: 10
- Crabgrass plant response rating [2, 22]: 2
- Crabgrass plant response rating [2, 24]: 8
- Nutsedge plant response rating [3, 17]: 0
- Nutsedge plant response rating [3, 25]: 0
- Nutsedge plant response rating [3, 18]: 0
- Plant response rating, Nutsedge [3, 26]: 0
- Plant response rating, Nutsedge [3, 27]: 0
- Nutsedge plant response rating [3, 21]: 0
- Nutsedge plant response rating [3, 22]: 0
- Nutsedge plant response rating [3, 24]: 0
- Ducksalad plant response rating [4, 28]: 0
- Ducksalad plant response rating [4, 29]: 0
- Ducksalad plant response rating [4, 30]: 0
- Ducksalad plant response rating [4, 31]: 0
- Rape plant response rating [5, 17]: 4
- Rape plant response rating [5, 25]: 4
- Rape plant response rating [5, 18]: 0
- Plant response rating, Rape [5, 26]: 1
- Plant response rating, Rape [5, 27]: 4
- Rape plant response rating [5, 21]: 8
- Rape plant response rating [5, 22]: 2
- Rape plant response rating [5, 24]: 6
- Giant foxtail plant response rating [6, 17]: 2
- Giant foxtail plant response rating [6, 25]: 5
- Giant foxtail plant response rating [6, 18]: 10
- Plant response rating, Giant foxtail [6, 26]: 10
- Plant response rating, Giant foxtail [6, 27]: 10
- Giant foxtail plant response rating [6, 21]: 10
- Giant foxtail plant response rating [6, 22]: 0
- Giant foxtail plant response rating [6, 24]: 8
- Barnyardgrass plant response rating ([7]; Postemergence, Rate 62 g/ha, scale 0 to 10, 0 is no effect, 10 is complete control): 0
- Barnyardgrass plant response rating ([7]; Rate 125 g/ha, Postemergence section (flood test species), scale 0 to 10, 0 no effect, 10 complete control): 0
- Barnyardgrass plant response rating [7, 30]: 0
- Barnyardgrass plant response rating [7, 31]: 0
- Redroot pigweed plant response rating [8, 17]: 4
- Redroot pigweed plant response rating [8, 18]: 3
- Plant response rating, Redroot pigweed [8, 26]: 6
- Plant response rating, Redroot pigweed [8, 27]: 7
- Redroot pigweed plant response rating [8, 21]: 8
- Redroot pigweed plant response rating [8, 22]: 3
- Plant response rating, Redroot pigweed [8, 32]: 5
- Redroot pigweed plant response rating [8, 24]: 6
- Wild oats plant response rating [9, 17]: 0
- Wild oats plant response rating [9, 18]: 0
- Wild oats plant response rating (0 to 10 scale) [9, 19]: 3
- Plant response rating, Wild oats [9, 20]: 5
- Wild oats plant response rating [9, 21]: 5
- Wild oats plant response rating [9, 22]: 0
- Plant response rating, Wild oats [9, 23]: 0
- Wild oats plant response rating [9, 24]: 2
- Morningglory plant response rating [10, 17]: 5
- Morningglory plant response rating [10, 25]: 5
- Morningglory plant response rating [10, 18]: 0
- Plant response rating, Morningglory [10, 26]: 0
- Plant response rating, Morningglory [10, 27]: 0
- Morningglory plant response rating [10, 21]: 0
- Morningglory plant response rating [10, 22]: 4
- Morningglory plant response rating [10, 24]: 5
- Soybean plant response rating [11, 17]: 3
- Soybean plant response rating [11, 18]: 1
- Plant response rating, Soybean [11, 26]: 5
- Plant response rating, Soybean [11, 27]: 5
- Soybean plant response rating [11, 21]: 6
- Soybean plant response rating [11, 22]: 3
- Plant response rating, Soybean [11, 32]: 5
- Soybean plant response rating [11, 24]: 7
- Corn plant response rating [12, 17]: 0
- Corn plant response rating [12, 25]: 0
- Corn plant response rating [12, 18]: 2
- Plant response rating, Corn [12, 26]: 3
- Plant response rating, Corn [12, 27]: 4
- Corn plant response rating [12, 21]: 4
- Corn plant response rating [12, 22]: 0
- Corn plant response rating [12, 24]: 4
- Rice plant response rating [13, 28]: 0
- Rice plant response rating [13, 29]: 0
- Plant response rating, Rice ([13]; Rate 250 g/ha, Postemergence (flood test), scale 0 to 10, 0 is no effect, 10 is complete control): 0
- Rice plant response rating [13, 30]: 0
- Cocklebur plant response rating [14, 17]: 2
- Cocklebur plant response rating [14, 25]: 2
- Cocklebur plant response rating [14, 18]: 0
- Plant response rating, Cocklebur [14, 26]: 0
- Plant response rating, Cocklebur [14, 27]: 0
- Cocklebur plant response rating [14, 21]: 0
- Cocklebur plant response rating [14, 22]: 0
- Cocklebur plant response rating [14, 24]: 3
- Wheat plant response rating [15, 17]: 0
- Wheat plant response rating [15, 18]: 0
- Wheat plant response rating (0 to 10 scale) [15, 19]: 0
- Plant response rating, Wheat [15, 20]: 0
- Wheat plant response rating [15, 21]: 3
- Wheat plant response rating [15, 22]: 0
- Plant response rating, Wheat [15, 23]: 0
- Wheat plant response rating [15, 24]: 1
- Sugarbeets plant response rating [16, 17]: 3
- Sugarbeets plant response rating [16, 18]: 0
- Sugarbeets plant response rating (0 to 10 scale) [16, 19]: 1
- Plant response rating, Sugarbeets [16, 20]: 2
- Sugarbeets plant response rating [16, 21]: 5
- Sugarbeets plant response rating [16, 22]: 0
- Plant response rating, Sugarbeets [16, 23]: 3
- Sugarbeets plant response rating [16, 24]: 3

Reference: patent US6737383B1, “Herbicidal oxadiazolidines” (priority 1999, dated 2004)
